In one experiment the test system is STC-1 cell line. Format: cell-based, mouse.
The next experiment concerns HeLa cells. As to the kind of experiment: cells. Format: cell-based.
For the next experiment, the system named is Colo320. As to the kind of experiment: cells. It counts as cell-based.
A further experiment deals with HCT116. Kind of experiment: cells. Format: cell-based.
Another experiment relates to SNU-C1. Kind of experiment: cells. Format: cell-based.
In a further experiment the test system is NCI-H716 cells. Kind of experiment: cells. Format: cell-based, Human.
The test system of a further experiment is DLD-1. As to the kind of experiment: cells. Format: cell-based.
The next experiment relates to RKO. Kind of experiment: cells. Format: cell-based.
Experiment [1] relates to endothelial tube formation in co-cultures of ECFCs and ADSCs treated with VEGF. Kind of experiment: cells. Format: cell-based, human.
The next experiment relates to SW480. Kind of experiment: cells. It counts as cell-based.
A further experiment has as its system HT-29. Kind of experiment: cells. Format: cell-based.
Experiment [2] deals with ECFC/ADSC co-culture cell nuclei number.
The subject of experiment [3] is HCT116 cells treated with a GSK3β inhibitor. Kind of experiment: cells. As to conditions: assay number 26; GSK3b inhibitor pretreated. It counts as cell-based.

Like-named read-outs stand apart in the source and are kept apart here. Bounds are passed on as bounds.

Take `CCc1oc2ccccc2c1C(=O)c1cc(Br)c(O)c(Br)c1` [NCGC00013895-08]: the “mSTC-1 GLP1 Secretion IC50/EC50” value with STC-1 cell line is above 40 µM. Moreover, in the experiment on HeLa cells, the “Hela CellCycMod PI 2N IC50/EC50” value is on record as above 10 µM, the “Hela CellCycMod PI 4N IC50/EC50” value is above 10 µM, the “Hela CellCycMod PI Cell Number IC50/EC50” value is recorded as above 10 µM and the “Hela CellCycMod PI MI IC50/EC50” value is above 10 µM. For the same compound, the “Hela CellCycMod PI S Phase IC50/EC50” value in the experiment with HeLa cells is above 10 µM. The “Basal_Viability ATP Colo 320 IC50/EC50” value with Colo320 is on record as above 20 µM. In addition, the “Basal_Viability ATP HCT116 IC50/EC50” value in the experiment with HCT116 is 1.057 µM. In addition, the “Basal_Viability ATP SNU-C1 IC50/EC50” value with SNU-C1 stood at 0.1053 µM. Further, the “hNCI-H716 GLP1 Secretion IC50/EC50” value in the experiment on NCI-H716 cells is recorded as above 40 µM. For the same compound, in the experiment on DLD-1, the “Basal_Viability ATP DLD-1 IC50/EC50” value is 0.2675 µM. In the experiment with RKO, the “Basal_Viability ATP RKO IC50/EC50” value was determined as 0.1312 µM. For the same compound, in experiment [1], the “VEGF_ADSC\ECFC Angio CD31 TubeArea IC50/EC50” value was above 10 µM. In addition, the “Basal_Viability ATP SW480 IC50/EC50” value in the experiment with SW480 was determined as 1.7408 µM. For the same compound, in the experiment with HT-29, the “Basal_Viability ATP HT-29 IC50/EC50” value is given as 1.1416 µM. For the same compound, in experiment [2], the “VEGF_ADSC\ECFC Angio Hoechst NucArea IC50/EC50” value is above 10 µM.

Consider `C[n+]1cc2c3c(ccc2c2ccc4cc5c(cc4c21)OCO5)OCO3` [NCGC00015959-09], for which, in the experiment with STC-1 cell line, the “mSTC-1 GLP1 Secretion IC50/EC50” value was above 40 µM. In addition, the “Basal_Viability ATP Colo 320 IC50/EC50” value with Colo320 came out at 0.3498 µM. For the same compound, the “Basal_Viability ATP HCT116 IC50/EC50” value with HCT116 is reported as 0.5253 µM. In addition, the “Basal_Viability ATP SNU-C1 IC50/EC50” value in the experiment with SNU-C1 stood at 0.3161 µM. For the same compound, the “hNCI-H716 GLP1 Secretion IC50/EC50” value in the experiment on NCI-H716 cells is reported as above 40 µM. Moreover, in the experiment on DLD-1, the “Basal_Viability ATP DLD-1 IC50/EC50” value turned out to be 0.5755 µM. The “Basal_Viability ATP RKO IC50/EC50” value with RKO amounted to 0.2646 µM. For the same compound, the “VEGF_ADSC\ECFC Angio CD31 TubeArea IC50/EC50” value in experiment [1] is on record as 0.5372 µM. Further, in the experiment with SW480, the “Basal_Viability ATP SW480 IC50/EC50” value was 0.3789 µM. Also, the “VEGF_ADSC\ECFC Angio Hoechst NucArea IC50/EC50” value in [2] turned out to be 0.9705 µM.

For the compound `CC[C@H](C)C(=O)O[C@H]1C[C@@H](C)C=C2C=C[C@H](C)[C@H](CC[C@@H]3C[C@@H](O)CC(=O)O3)[C@H]21` [NCGC00023509-13], the “mSTC-1 GLP1 Secretion IC50/EC50” value in the experiment with STC-1 cell line (assay number 13) was above 40 µM. The “Hela CellCycMod PI 2N IC50/EC50” value with HeLa cells (assay number 14, 2N) was above 10 µM. Also, in the experiment on HeLa cells (assay number 15, S phase), the “Hela CellCycMod PI S Phase IC50/EC50” value is above 10 µM. Also, in the experiment with HeLa cells (assay number 16, 4N), the “Hela CellCycMod PI 4N IC50/EC50” value is above 10 µM. The “Hela CellCycMod PI MI IC50/EC50” value in the experiment on HeLa cells (assay number 17, MI) is above 10 µM. In addition, the “Hela CellCycMod PI Cell Number IC50/EC50” value in the experiment on HeLa cells (assay number 18, cell number) is above 10 µM. In the experiment with NCI-H716 cells (assay number 12), the “hNCI-H716 GLP1 Secretion IC50/EC50” value is listed as 32.895 µM. Besides, the “VEGF_ADSC\ECFC Angio CD31 TubeArea IC50/EC50” value in [1] is 3.2658 µM. In addition, the “VEGF_ADSC\ECFC Angio Hoechst NucArea IC50/EC50” value in experiment [2] was above 10 µM.

On to `C[C@@H]1CN(CCCn2c3ccccc3c3ccccc32)C[C@H](C)N1` [NCGC00025187-02], for which, in the experiment with STC-1 cell line (assay number 13), the “mSTC-1 GLP1 Secretion IC50/EC50” value was above 40 µM. The “Basal_Viability ATP Colo 320 IC50/EC50” value in the experiment with Colo320 (assay number 27, basal) was found to be 15.9001 µM. In the experiment with HCT116 (assay number 25, basal), the “Basal_Viability ATP HCT116 IC50/EC50” value is 10.5492 µM. The “Basal_Viability ATP SNU-C1 IC50/EC50” value with SNU-C1 (assay number 30, basal) turned out to be 6.023 µM. Moreover, the “GSK3b inh pretreated_Viability ATP HCT116 IC50/EC50” value in experiment [3] is given as 3.848 µM. Besides, in the experiment with NCI-H716 cells (assay number 12), the “hNCI-H716 GLP1 Secretion IC50/EC50” value came to 6.3711 µM. The “Basal_Viability ATP DLD-1 IC50/EC50” value with DLD-1 (assay number 23, basal) is reported as 9.7994 µM. The “Basal_Viability ATP RKO IC50/EC50” value with RKO (assay number 29, basal) worked out at 2.184 µM. In addition, the “Basal_Viability ATP SW480 IC50/EC50” value with SW480 (assay number 24, basal) was 2.353 µM. Also, the “Basal_Viability ATP HT-29 IC50/EC50” value in the experiment with HT-29 (assay number 28, basal) was 4.021 µM.

Turning to `O=C(Nc1ccc(Oc2ccc(Cl)cc2)c(Cl)c1)c1cc(I)cc(I)c1O` [NCGC00160556-02], the “mSTC-1 GLP1 Secretion IC50/EC50” value with STC-1 cell line is 1.3019 µM. In addition, in the experiment with Colo320, the “Basal_Viability ATP Colo 320 IC50/EC50” value was 0.054 µM. Moreover, in the experiment with HCT116, the “Basal_Viability ATP HCT116 IC50/EC50” value was 0.01695 µM. Also, the “Basal_Viability ATP SNU-C1 IC50/EC50” value in the experiment on SNU-C1 is recorded as 0.0143 µM. The “hNCI-H716 GLP1 Secretion IC50/EC50” value in the experiment on NCI-H716 cells is above 40 µM. Further, the “Basal_Viability ATP DLD-1 IC50/EC50” value with DLD-1 was 0.0084 µM. Further, the “Basal_Viability ATP RKO IC50/EC50” value in the experiment on RKO is 0.0303 µM. Moreover, the “VEGF_ADSC\ECFC Angio CD31 TubeArea IC50/EC50” value in experiment [1] was above 10 µM. Besides, in the experiment on SW480, the “Basal_Viability ATP SW480 IC50/EC50” value came to 0.0108 µM. The “Basal_Viability ATP HT-29 IC50/EC50” value with HT-29 is 0.0095 µM. The “VEGF_ADSC\ECFC Angio Hoechst NucArea IC50/EC50” value in experiment [2] is on record as 6.571 µM.

As to `COCC(=O)O[C@]1(CCN(C)CCCc2nc3ccccc3[nH]2)CCc2cc(F)ccc2[C@@H]1C(C)C` [NCGC00161420-06], the “mSTC-1 GLP1 Secretion IC50/EC50” value with STC-1 cell line (assay number 13) was determined as 8.237 µM. Besides, the “Basal_Viability ATP Colo 320 IC50/EC50” value in the experiment on Colo320 (assay number 27) is recorded as 10.5076 µM. Further, the “Basal_Viability ATP HCT116 IC50/EC50” value in the experiment on HCT116 (assay number 25, basal) came out at 12.3743 µM. In the experiment on SNU-C1 (assay number 30), the “Basal_Viability ATP SNU-C1 IC50/EC50” value is listed as 5.4372 µM. The “GSK3b inh pretreated_Viability ATP HCT116 IC50/EC50” value in [3] was 5.3311 µM. In the experiment on NCI-H716 cells (assay number 12), the “hNCI-H716 GLP1 Secretion IC50/EC50” value is above 40 µM. In addition, the “Basal_Viability ATP DLD-1 IC50/EC50” value with DLD-1 (assay number 23) amounted to 7.2629 µM. In addition, the “Basal_Viability ATP RKO IC50/EC50” value in the experiment with RKO (assay number 29) came out at 6.7187 µM. Moreover, the “VEGF_ADSC\ECFC Angio CD31 TubeArea IC50/EC50” value in experiment [1] is above 10 µM. Besides, the “Basal_Viability ATP SW480 IC50/EC50” value with SW480 (assay number 24) is 4.5426 µM. Besides, in the experiment with HT-29 (assay number 28), the “Basal_Viability ATP HT-29 IC50/EC50” value worked out at 3.0782 µM. For the same compound, the “VEGF_ADSC\ECFC Angio Hoechst NucArea IC50/EC50” value in [2] is above 10 µM.
